One may read the EC50 as the midpoint of the concentration-response curve. A lower EC50 goes with a more potent agent.

The target of the test is T1, GPR103 F11N-termA (Homo sapiens, UniProt Q96P65, F11A).
T1 construct: we used human full-length QRFPR-encoding plasmids; expressed in transfected cells; host or cells: HEK293 cells, pCAGGS vector
T1 sequence (Q96P65 1-431 F11A): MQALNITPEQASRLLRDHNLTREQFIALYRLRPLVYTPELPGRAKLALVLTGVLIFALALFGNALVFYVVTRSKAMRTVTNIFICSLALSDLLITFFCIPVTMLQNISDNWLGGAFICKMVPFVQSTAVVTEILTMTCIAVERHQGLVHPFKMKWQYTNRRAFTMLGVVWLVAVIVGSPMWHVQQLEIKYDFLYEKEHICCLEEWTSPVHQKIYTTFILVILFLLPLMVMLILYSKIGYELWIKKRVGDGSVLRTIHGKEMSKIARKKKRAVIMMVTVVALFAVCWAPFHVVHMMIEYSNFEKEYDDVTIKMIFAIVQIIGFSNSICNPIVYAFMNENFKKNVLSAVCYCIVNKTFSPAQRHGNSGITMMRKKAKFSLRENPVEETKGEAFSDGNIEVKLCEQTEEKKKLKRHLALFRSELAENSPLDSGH
Put plainly: TGFα shedding assay; Exp. level WT (1:10). Type of test: cell-based. Here is the method: For the TGFα shedding assay and the flow cytometry analysis, we used human full-length QRFPR-encoding plasmids. Specifically, GPR103 was N-terminally modified with an HA signal sequence followed by a FLAG epitope and then a flexible linker ([…]; the FLAG epitope is underlined) and inserted into the pCAGGS vector. Plasmid encoding GPR103 mutants were generated using Quickchange Site-Directed Mutagensis kit (Agilent).
The TGFα shedding assay was performed as described previously with minor modifications. Plasmid transfection was performed in a 6-well plate with a mixture of 500 ng (per well in a 6-well plate) AP-TGFα-encoding plasmid and 200 ng GPR103-encoding plasmid. After 1-day culture, the transfected cells were harvested by trypsinization, pelleted by centrifugation at 190 × g for 5 min, and washed once with 5 mM HEPES (pH 7.4)-containing Hank’s Balanced Salt Solution (HBSS). After centrifugation, the cells were resuspended in 8 mL of the HEPES-containing HBSS. The cell suspension was seeded in a 96-well culture plate (cell plate) at a volume of 90 μL (per well hereafter) and incubated in a 37 °C incubator with 5% CO2 for 30 min. […] After spinning the cell plates at 190 × g for 2 min, 80 μL of conditioned media was transferred to an empty 96-well plate (conditioned media (CM) plate). Then, 80 μL of AP reaction solution (10 mM p-nitrophenylphosphate (p-NPP), 120 mM Tris-HCl (pH 9.5), 40 mM NaCl, and 10 mM MgCl2) was dispensed into the cell plates and the CM plates. Absorbance at 405 nm of the plates was measured using a microplate reader (SpectraMax 340 PC384, Molecular Devices) before and after 1-h incubation at room temperature. Ligand-induced AP-TGFα release was calculated by subtracting spontaneous AP-TGFα release signal from ligand-induced AP-TGFα release signal. The AP-TGFα release signals were fitted to a four-parameter sigmoidal concentration–response curve, using the Prism 10 software (GraphPad Prism). For each replicate experiment, the pEC50 parameter (negative logarithmic values of EC50 values) of the individual GPR103 mutants were normalized to that of the wild-type GPR103 performed in parallel, and resulting ∆pEC50 values were used to denote ligand response activity of the mutants. […]
Exp. le vel: WT (1:5 0)Exp. le vel: WT (1:5 0)Exp. le vel: WT (1:5 0)Exp. le vel: WT (1:2 0)Exp. le vel: WT (1:2 0)Exp. le vel: WT (1:1 0) […]
L1 4N - t e r mA F2 5N - t e r mA I 2 6N - t e r mA Y 2 9N - t e r mA C 9 82 .5 7A T10 22 .6 1A Exp . l eve l: WT (1 :5)Exp . l evel : >WT (1 :1)Exp. le vel: WT (1:2 0)Exp. le vel: WT (1:2 0)Exp. le vel: WT (1:5 0)Exp . l eve l: WT (1 :1) […]
Exp. le vel: WT (1:1 0)Exp. le vel: WT (1:2 0) C 1 1 83 .2 5AExp. le vel: WT (1:5 0)Exp. le vel: WT (1:5 0)Exp. le vel: WT (1:2 0)Exp . l eve l: WT (1 :5) […]
Exp. le vel: WT (1:5 0)Exp. le vel: WT (1:1 0)Exp. le vel: WT (1:5 0) E203ECL2AExp . l evel : >WT (1 :1)Exp. le vel: WT (1:5 0)Exp. le vel: WT (1:5 0) […]
Exp . l eve l: WT (1 :1) F28Exp. le vel: WT (1:5 0) C 2 8 56 .4 7AExp. le vel: WT (1:2 0) WExp. le vel: WT (1:2 0) F28Exp. le vel: WT (1:5 0)Exp . l evel : >WT (1 :1) […]
Exp. le vel: WT (1:5 0)Exp. le vel: WT (1:5 0) C 3 2 77 .4 8AExp . l eve l: WT (1 :5)Exp . l evel : >WT (1 :1)Exp . l evel : >WT (1 :1) […]
Suppl eme nt ary Figure 1 | Mutational analysis of GPR103. […]
mutants. Data are presented as mean values ± SEM, normally n=3-5; dots), each performed in triplicate. b-d Cell-surface expression (b) and QRFP26-in-duced activation of GPR103 (c, d) were analyzed by the flow cytometry and the TGFα shedding assay, respectively. From the concentration–response curves (a), Emax (c) and ΔpEC50 (d) values relative to the wild type were calculated. Colors in the mutant bars indicate an expression level matching to that of titrated wild type. Statistical analyses were performed using the ordinary one-way ANOVA followed by Dunnett tests with the expression-matched […]

Like-named read-outs stand apart in the source and are kept apart here. No end group written: not given here.

In the case of TSGPLGNLAEELNGYSRKKGGFSFRF-NH2 [QRFP26], the Emax runs as follows: (Exp. #1) 103.83 % WT; (Exp. #2) 92.88 % WT; (Exp. #3) 104.15 % WT; (mean, read-out: Emax) 100%; (n = 3, read-out: Emax) 104 ± 3%. The same substance had an EC50 (n = 3) of 178 nM.
